Test results taken from patent US20100184676A1, “USE OF A PEPTIDE AS A THERAPEUTIC AGENT” (priority 2007, published 2010).

Key:
[1] = test system: HepG2-2.2.15 cells; assay: Cell viability (dye uptake) in HBV assay; format: cell-based; settings: peptide 10 micrograms per ml
Procedure: (§1) HepG2-2.2.15 cells were plated in 96-well microtiter plates. After 16-24 hours the confluent monolayer of HepG2-2.2.15 cells was washed and the medium was replaced with complete medium containing test peptide—10 micrograms per ml—in duplicate. Lamivudine (3TC) was used as the positive control, while media alone was added to the cells as a negative control (virus control). Three days later the culture medium was replaced with fresh medium containing the peptide. Six days following the initial administration of the peptide, the cell culture supernatants was collected, treated with pronase and DNAse and then used in a real-time quantitative TaqMan PCR assay. The PCR-amplified HBV DNA was detected in real-time by monitoring increases in fluorescence signals that result from the exonucleolytic degradation of a quenched fluorescence probe molecule that hybridizes to the amplified HBV DNA. For each PCR amplification, a standard curve was simultaneously generated using dilutions of purified HBV DNA. Antiviral activity was calculated from the reduction in HBV DNA levels (% virus control). A novel dye uptake assay was then employed to measure cell viability, which is used to calculate toxicity (% cell control).

[2] = test system: HIV-1IIIB; assay: HIV-1 antiviral assay (CPE reduction, MTS) in CEM-SS cells; format: cell-based; settings: peptide 10 micrograms per ml, 6 days post-infection
[3] = test system: hepatitis B virus (HBV) ayw strain; assay: HBV experimental assay system (secreted HBV DNA, TaqMan PCR); format: cell-based; settings: peptide 10 micrograms per ml; six days; HBV DNA in supernatant
Procedure: HepG2-2.2.15 is a stable cell line containing the hepatitis B virus (HBV) ayw strain genome (ATCC Cat. No. CRL-11997). Antiviral compounds blocking any late step of viral replication such as transcription, translation, pregenome encapsidation, reverse transcription, particle assembly and release can be identified and characterized using this cell line.
as §1, with “Lamivudine (3TC) was used as the positive control, while media alone was added to the cells as a negative control (virus control).” left out, “A novel dye uptake assay was then employed to measure cell viability, which is used to calculate toxicity (% cell control).” left out

[4] = Cell viability (dye uptake) in HBV assay; format: cell-based; settings: human, HepG2-2.2.15 cells, peptide 10 micrograms per ml
Procedure: as §1

[5] = test system: Pseudomonas aeruginosa; format: cell-based; settings: 5 micrograms per ml
[6] = test system: Streptococcus pneumoniae; format: cell-based; settings: 5 micrograms per ml
[7] = test system: A549 cells; assay: Propidium iodide cell cycle assay; format: cell-based, human; settings: 24 hours, peptide 10 micrograms per ml, FACS
Text: Disregulation of the cell cycle components may lead to tumor formation.

[8] = test system: Human Peripheral Blood Mononuclear Cells (PBMC); assay: T cell proliferation assay (PHA, 3H-thymidine); format: cell-based; settings: peptide 10 micrograms per ml, 3H-thymidine incorporation
[9] = test system: Human Peripheral Blood Mononuclear Cells (PBMC); assay: B cell proliferation assay (SAC plus Interleukin-2, 3H-thymidine); format: cell-based; settings: peptide 10 micrograms per ml, 3H-thymidine incorporation
[10] = test system: RAW 264.7 cells; assay: Phagocytosis assay (Fluorescein-labeled Escherichia coli); format: cell-based, mouse; settings: peptide 10 micrograms per ml, flow cytometry
[11] = test system: A549 cells; assay: Apoptosis induction assay (Annexin-5); format: cell-based, human; settings: 24 hours
[12] = test system: A549 cells; assay: Apoptosis prevention assay (C2 ceramide, Annexin-5); format: cell-based, human; settings: A549 cells pretreated 30 min, peptide 10 micrograms per ml
[13] = test system: spleen cells; assay: Th1/Th2 cytokine profiling assay; format: cell-based, Balb/c mice; settings: Ovalbumin restimulation; peptide 10 micrograms per ml; 72 hours
[14] = test system: TNF alpha; assay: TNF alpha production assay (LPS-stimulated macrophages, ELISA); format: cell-based, human; settings: macrophages from PBMC, peptide 10 micrograms per ml, lipopolysaccharide 200 ng/ml, overnight
Text: Not stimulated macrophages served as negative background control.

[15] = test system: Primary Human endothelial cells (HUVEC); assay: Endothelial cell migration assay; format: cell-based; settings: peptide 10 micrograms per ml, 22 hours
[16] = test system: HUVEC; assay: Endothelial tube formation assay; format: cell-based, human; settings: peptide 10 micrograms per ml, 20 hours, average tubule length
Text: Positive control was vehicle only.

[17] = test system: MRSA; settings: 5 micrograms per ml
[18] = in vitro; settings: human, CEM-SS cells
[19] = in vitro; settings: human, MRC-5 cells
[20] = test system: HCMV strain AD169; assay: HCMV plaque reduction assay in MRC-5 cells; settings: HCMV AD169 in MRC-5 cells; peptide 10 micrograms per ml; 7-10 days
[21] = test system: MRC-5 cells; settings: human, 6 days
[22] = test system: CEM-SS cells; assay: Cytotoxicity (MTS cell viability) in HIV-1 experiments; settings: peptide 10 micrograms per ml

Nc1ccn([C@@H]2CS[C@H](CO)O2)c(=O)n1 [3TC, Lamivudine, reference compound]
% Cell viability [1]: 95.8%

CC[C@H](C)[C@H](NC(=O)[C@H](CCC(N)=O)NC(=O)[C@H](Cc1c[nH]cn1)NC(=O)[C@H](C)NC(=O)[C@H](CC(C)C)NC(=O)[C@H](CCCCN)NC(=O)[C@H](CCC(N)=O)NC(=O)[C@@H](NC(=O)[C@@H](NC(=O)[C@@H]1CSSC[C@H](NC(=O)CNC(=O)[C@H](Cc2ccccc2)NC(=O)[C@H](CO)NC(=O)[C@H](CCCNC(=N)N)NC(=O)[C@H](CC(C)C)NC(=O)CNC(=O)[C@H](CCC(N)=O)NC(=O)[C@H](Cc2ccccc2)NC(=O)[C@H](CC(N)=O)NC(=O)[C@H](CC(N)=O)NC(=O)[C@H](CCSC)NC(=O)[C@H](CO)NC(=O)[C@H](CCC(N)=O)NC(=O)[C@H](CCCNC(=N)N)NC(=O)[C@@H](N)Cc2ccc(O)cc2)C(=O)N[C@@H](CCCNC(=N)N)C(=O)N[C@@H](Cc2ccccc2)C(=O)NCC(=O)N[C@@H]([C@@H](C)O)C(=O)N1)[C@@H](C)O)C(C)C)C(=O)N[C@@H](Cc1ccc(O)cc1)C(=O)N[C@@H](CCC(N)=O)C(=O)N[C@@H](Cc1ccccc1)C(=O)N[C@H](C(=O)N[C@@H](CC(=O)O)C(=O)N[C@@H](CCCCN)C(=O)N[C@@H](CC(=O)O)C(=O)N[C@@H](CCCCN)C(=O)N[C@@H](CC(=O)O)C(=O)N[C@@H](CC(N)=O)C(=O)N[C@H](C(=O)N[C@@H](C)C(=O)N1CCC[C@H]1C(=O)N[C@@H](CCCNC(=N)N)C(=O)N[C@@H](CO)C(=O)N[C@@H](CCCCN)C(=O)N[C@H](C(=O)N[C@@H](CO)C(=O)N1CCC[C@H]1C(=O)N[C@@H](CCC(N)=O)C(=O)NCC(=O)N[C@@H](Cc1ccc(O)cc1)C(N)=O)[C@@H](C)CC)C(C)C)[C@@H](C)O [Adrenomedullin]
% CPE reduction in HIV-1 infected CEM-SS cells [2]: 0.0% | % inhibition of HBV replication in HEP G2 cells [3]: 0.0% | viability at 144 h, 10 micrograms per ml [4]: 100% | % inhibition [5]: 0.0% | % inhibition [6]: 0.0% | Cell cycle analysis G0/G1 [7]: 57.8 | Cell cycle analysis G2/M [7]: 9.5 | Cell cycle analysis S [7]: 32.7 | % of PHA induced control [8]: 107.1% | % of SAC/IL2 induced control [9]: 111.0% | % of control phagocytosis [10]: 108.8% | % of induction [11]: 1.5% | % prevention of ceramide induced apoptosis [12]: 0.0% | IFNγ spleen cells; TH1 response (% of control) [13]: 24.5 % of control | IL-2 spleen cells (% of control) [13]: 0.0 % of control | IL-4 spleen cells; TH2 response (% of control) [13]: 0.0 % of control | IL-5 spleen cells; TH2 response (% of control) [13]: 28.1 % of control | TNF-a spleen cells; TH1 response (% of control) [13]: 66.7 % of control | % of LPS induction [14]: 100.9% | % inhibition of migration [15]: −34% | % inhibition of tube formation [16]: 26% | % inhibition [17]: 0.0% | viability at 10 micrograms per ml [18]: 92.9% | viability at 144 h [19]: 100% | % plaque reduction [20]: 0.0%

CC(C)(C)NC(=O)[C@@H]1CN(Cc2cccnc2)CCN1C[C@@H](O)C[C@@H](Cc1ccccc1)C(=O)N[C@H]1c2ccccc2C[C@H]1O [Indinavir, indinavir]
% CPE reduction in HIV-1 infected CEM-SS cells [2]: 100%

Nc1nc(O)c2ncn(COC(CO)CO)c2n1 [Ganciclovir, reference compound]
% Cell viability [21]: 100% | % plaque reduction [20]: 100%

Cc1cn([C@H]2C[C@H](N=[N+]=[N-])[C@@H](CO)O2)c(=O)[nH]c1=O [AZT]
% CPE reduction in HIV-1 infected CEM-SS cells [2]: 99% | % Cell viability [22]: 97%
